Experiments:
Type in all cases: cell-based
PKC-α-RACK1 = target: T1, PKC-α-RACK1 (Homo sapiens, UniProt P17252)
T1 construct: host or cells: SH-SY5Y neuroblastoma cells
Description: Cells were grown in two chambered slides (Nunc, USA) at low density. For immunofluorescence staining, the cells were washed with PBS (pH 7.4) and fixed with 4% paraformaldehyde for 4 min. Following fixation, the cells were blocked and permeabilized with 5% serum and 0.3% Triton X 100 in 1×PBS for 30 min. The cells were washed three times with 1×PBS and incubated with primary antibodies for 1 hr at 1:100 dilution. The incubation slides were then washed again three times in 1×PBS and were incubated with the FITC anti-rabbit IgG and Rhodamine anti-mouse IgG for 1 hr at 1:400 dilution. The cells were further washed and treated with DAPI (4′,6-diamidino-2′-phenylindole, dihydrochloride) (Thermo Scientific, USA) to stain the nucleus. Finally, the slides were washed and mounted in Pro Long Gold antifade mounting solution (Invitrogen, USA) and were viewed under the LSM 710 Meta confocal microscope (Zeiss) at 350 nm, 490 nm, and 540 nm excitation and 470 nm, 525 nm, and 625 nm emission for DAPI, FITC, and Rhodamine respectively. Six individual fields at 63× oil lens magnification were analyzed for the mean fluorescence intensity (MFI) in each channel. The co-localization correlation generated by the ZEN software (Zeiss).
Coimmunoprecipitation was done following protocol described Besson et al. with slight modification. See Besson et al. (2002) J Biol Chem 277, 22073-22084. […]

synaptophysin = assay: Synaptophysin Western Blot in primary rat hippocampal neurons; conditions: ASPD + DCPLA-ME
Description: Cells were harvested in homogenizing buffer containing 10 mM Tris-Cl (pH 7.4), 1 mM PMSF (phenylmethylsulfonyl fluoride), 1 mM EGTA, 1 mM EDTA, 50 mM NaF, and 20 μM leupeptin and were lysed by sonication. The homogenate was centrifuged at 100,000×g for 15 min at 4° C. to obtain the cytosolic fraction (supernatant) and membrane (pellet). The pellet was resuspended in the homogenizing buffer by sonication. Protein concentration was measured using the Coomassie Plus (Bradford) Protein Assay kit (Pierce, USA). Following quantification, 20 μg of protein from each sample was subjected to SDS-PAGE analysis in 4-20% gradient Tris-Glycine gel (Invitrogen, USA). The separated protein was then transferred to nitrocellulose membrane. The membrane was blocked with BSA at room temperature for 15 min and was incubated with primary antibody over night at 4° C. After the incubation, it was washed three times with TBS-T (Tris Buffered saline-Tween 20) and further incubated with alkaline phosphatase conjugated secondary antibody (Jackson Immunoresearch Laboratories, USA) at 1:10,000 dilution for 45 min. The membrane was finally washed three times with TBS-T and developed using the 1-step NBT-BCIP substrate (Pierce, USA). Western Blot was imaged in the ImageQuant RT-ECL (GE Life Sciences, Piscataway, N.J.) and densitometric quantification was performed using the IMAL software (Blanchette Rockefeller Neurosciences Institute, Morgantown, W. Va.). For translocation assays, PKC activation was represented as the percentage of total protein in the membrane (membrane/cytosol+membrane).

[1] = system: primary human cortical neurons; assay: Long-term culture of human primary cortical neurons (40 days)
Description: More specifically, human primary cortical neurons were grown in Neuronal Medium (ScienCell Cat No #1521) containing neuronal growth supplement (NGS) (Sciencell Cat No #1562).
Cells were plated on poly-l-lysine (0.001%) coated plates at a density of >10000 cells/cm2. Half of the media was replaced by new media every 3 days. DCPLA-ME or Bryostatin was dissolved in 100% ethanol and added at final concentration (100 nM for DCPLA-ME, 0.27 nM for Bryostatin). Fresh DCPLA-ME (100 nM) or Bryostatin (0.27 nM) was added every 3 days during media change. The experiments were continued for 40 days.
Human primary neurons (ScienCell Research Laboratories, USA) were thawed and plated on poly-L-lysine coated plates at a density of 10,000 cells per cm^2 and were maintained in neuronal medium (DMEM+high glucose+neuronal growth supplement, ScienCell Research Laboratories, USA) following the recommended method. Primary human neurons were then treated with either DCPLA-ME (100 nM) or bryostatin 1 (0.27 nM) for 40 days. Fresh drug was added every third day with 50% media change.

rat hippocampal neurons = assay: Differentiation of seven day old rat hippocampal neurons; conditions: RA 10 μM, bryostatin 1 0.27 nM, DCPLA-ME 100 nM
Description: FIG. 27: PKC-ε specific activation induces maturation and differentiation in rat primary neurons. Seven day old culture of rat hippocampal neurons were treated with RA (10 μM), 0.27 nM bryostatin 1(Bry), RA+bryostatin 1(RA+Bry), DCPLA-ME (100 nM) or RA+DCPLA-ME for 48 h. FIG. 27A—Confocal micrographs showing rat hippocampal neurons stained for MAP-2 (green), synaptophysin (red), and DAPI (blue). FIG. 27B—Graphical representation of number of dendritic branches per neuron. PKCε activation by RA+bryostatin 1(RA+Bry), DCPLA-ME or RA+DCPLA-ME increase the dendritic branching by 2-fold. FIG. 27C—Mean fluorescence intensity for MAP-2 or synaptophysin calculated from eight random 225 μm2 of confocal images. Data are represented as mean±SE. * represents significance with respect to control (* p<0.05, ** p<0.005 and *** p<0.0005).
Dendritic branching was increased in the cells treated with RA and a PKC activator, as evidenced by the MAP-2 staining. Similarly, the synaptic vesicle pool increased was also seen by increased synaptophysin.
The effect of RA+bryostatin 1 on development of primary neurons was also investigated. Seven day old rat hippocampal neurons were treated with RA, bryostatin 1, RA+bryostatin 1, DCPLA-methyl ester (“DCPLA-ME”) or RA+DCPLA-ME for 48 hr. RA+bryostatin produced a greater increase of MAP2 and synaptophysin than RA or bryostatin alone (FIGS. 27A & C).

SMILES	PKC-α-RACK1 interaction by RACK1 immunoprecipitation (in words) (PKC-α-RACK1)	colocalization correlation R (PKC-α-RACK1)	synaptophysin expression by Western Blot (in words) (synaptophysin)	fractal dimension (neuritic branching) ([1]; 100 nM)	number of colocalized puncta of synaptophysin and PSD-95 ([1]; 100 nM)	number of synapses (in words) ([1]; 100 nM)	neurite-positive cells/field ([1]; 100 nM, 40 days) [cells/field]	expression levels of PKCε, PSD-95 and synaptophysin (in words) ([1]; compared to control or bryostatin 1-treated cells, 40 days)	increase of dendritic branching (rat hippocampal neurons; 48 h) [fold]	Fractal dimension (dendritic branching) (rat hippocampal neurons; 48 hr)
CCC/C=C/C=C/C(=O)O[C@H]1/C(=C/C(=O)OC)C[C@H]2C[C@H]([C@@H](C)O)OC(=O)C[C@H](O)C[C@@H]3C[C@H](OC(C)=O)C(C)(C)C(O)(C[C@@H]4C/C(=C/C(=O)OC)C[C@H](/C=C/C(C)(C)[C@]1(O)O2)O4)O3 [Bryostatin-1]	increased at 15 min but decreased below the control level at 30 min	0.58	–	–	–	–	–	–	–	–
CCCCCC1CC1CC1CC1CCCCCCCC(=O)OC (stereo not shown) [DCPLA-ME, methyl 8-(2-((2-pentylcyclopropyl)methyl)cyclopropyl)octanoate]	–	–	maintained the expression similar to control	1.40±0.03	230 % of control	significantly increased	360±45	significantly higher	2	1.40±0.03

— patent US10821079B2, “PKC activators and combinations thereof” (Cognitive Research Enterprises, Inc., priority 2011, dated 2020)
